Key:
uricase = assay: Bacterial uricase activity (Amplex Red Uric Acid/Uricase Assay Kit); format: biochemical; details: mean average of all strains of the species; 2% uric acid in medium; fluorescence after 30 min; positive control 20 mM H2O2
Experimental: Bacterial strains were evaluated for uricase catalytic activity. Prior to the assay, 1/100th volume from the glycerol stocks (example 1) was added to the microtiter plate containing appropriate medium (see overview). Culturing conditions (time, temperature, medium, aerobic or anaerobic) depend on species and can be found in Table 1. Uric acid was dissolved in medium to 2% and the medium was filter sterilized (therefore uric acid was immediately present in the medium upon culturing). Growth of the bacterial strains was assessed by visual examination (the level of viscosity of the medium) before harvesting for fluorescence measurement. […]
The enzyme assay, Amplex® Red Uric Acid/Uricase Assay Kit; Catalog No. A22181; Molecular Probes, was used according to the instructions of the manufacturer. Fluorescence readouts were determined after 30 min using excitation at 530±12.5 nm and fluorescence detection at 590±17.5 nm. […]
The activity of the strains listed in Table 1 was determined, as described in Examples 2 and 3, as percentage of maximal fluorescence from positive controls (Bifidobacterium breve strain ATCC 15701 was used as positive control for the screems according to Example 2 and 20 mM H2O2 solution was used as positive control for the screems according to Example 3). […]

[1] = tested on: hyperuricemia mouse model; assay: Hyperuricemia mouse model (high-purine diet + potassium oxonate), serum uric acid; format: in vivo, mice; details: FIG. 9; normal range 40-65
Source text: 6-10 weeks old mice are randomly divided into groups of 10 mice as follows, using 1.0×10^8-1010 CFU for the test product: • 1) Control group • 2) Allopurinol treatment group • 3) Microbial treatment group 1: Test product is bacterial strain BEO #104 • 4) Microbial treatment group 2: Test product is bacterial strain BEO #110 • 5) Microbial treatment group 4: Test product is bacterial strain BEO #227 • 6) Microbial treatment group 6: Test product is mix of bacterial strains BEO #110+BEO #227
The control group is fed a normal diet (laboratory chow and water ad libitum) and treated with saline (0.5 ml, sodium chloride solution in water) by intragastric administration once a day. The other groups are fed a high-purine diet (laboratory high-purine chow and water ad libitum) and administered an intraperitoneal injection of potassium oxonate 300 mg/kg once a day. The microbial treatment groups are treated daily with approximately 1.0×10^9 CFU/day by intragastric administration. The strains tested all have QPS status and they are produced and formulated under laboratory conditions.
Mice are weighed day −1 for determination of mean weight of animals in the experiment and for composition of groups. […]
Serum is collected once weekly and at the end of experiment. […] Serum is analysed for uric acid concentration.

patients = patients treated with allopurinol; cited from earlier work

Row | Uricase activity: Inhibitory activity (uricase) | Compound | serum urate concentration over a 23-hour treatment cycle [1] | patients treated reaching the treatment target (patients)
1 | low (low (5-30% of positive control)) | Lactobacillus plantarum | – | –
2 | – | Oc1ncnc2[nH]ncc12 [allopurinol] | large fluctuations in serum urate outside the normal range | 30-40%

From patent US20230285477A1, “MICROBIAL THERAPY” (BEO THERAPEUTICS, priority 2020, published 2023)
